According to patent EP1356819A1, “Use of proteasome/ubiquitination inhibitors and/or MMP inhibitors alone or in combination with a growth hormone for treating /preventing catabolic conditions” (Universitair Medisch Centrum Utrecht, priority 2002, dated 2003):
Read-outs that look alike come from different tables or passages of the source. Where a SMILES comes first, the peptide text is derived from it. The star is where a group is joined. Cbz = O=C(OCc1ccccc1)*

Key:
[1] = test system: GH binding protein (GHBP); assay: Release of GH binding protein into the growth medium, Western blotting with Mab5 antibody; format: cell-based, rabbit; conditions: 1 µM; growth medium after 150 min at 30°C (Fig. 3)
Procedure: Cell lines and plasmids. Chinese hamster lung cells, ts20, bearing a thermolabile ubiquitin-activating enzyme E1, and E36 control cells were stably transfected with a pCB6 construct containing the full length rabbit GHR cDNA sequence. The newly established cell lines were grown at 30°C in MEMα supplemented with 10% FCS, 4.5 g/l glucose, 100 U/ml penicillin, 100 µg/ml streptomycin and 0.45 mg/ml geneticin (van Kerkhof et al., 2002). Sixteen hours before the start of the experiment, 10 mM butyrate was added to increase the expression of the GHR (van Kerkhof et al., 2002).
Cell lysis, immunoprecipitation, and western blotting. […] Cell lysates were subjected to SDS-polyacrylamide gel electrophoresis using a precast ready gel system (BioRad, Veenendaal, The Netherlands) and transferred to polyvinylidenedifluoride (PVDF) paper. The blots were immunostained using the polyclonal GHR antibodies anti-T or anti-B or the monoclonal antibody mAb5 followed by peroxidase conjugated protein A or rabbit anti-mouse IgG (Pierce Chemical Co.) as described previously (van Kerkhof et al. 2002), and detected by enhanced chemiluminescence (Roche Molecular Biochemicals).
• Fig. 1. […] Quantification of receptors at the cell surface. […] The number GHRs were calculated and expressed as a percentage of untreated cells. • Fig. 3. […]

[2] = test system: GHR; assay: Western blotting of GHR species (mature and precursor) in cell lysates after drug treatment; format: cell-based, rabbit
Procedure: Cell lines and plasmids. Chinese hamster lung cells, ts20, bearing a thermolabile ubiquitin-activating enzyme E1, and E36 control cells were stably transfected with a pCB6 construct containing the full length rabbit GHR cDNA sequence.
Antibodies and materials. […] Inhibitors were dissolved in dimethylsulfoxide (DMSO).
Cell lysis, immunoprecipitation, and western blotting. Cells (in 6-cm dishes) were lysed on ice in 1.0 mL of lysis buffer containing 1% Triton X-100, 1 mM EDTA in PBS, with 50 mM NaF, 1 mM Na3VO4, 10 µg/ml aprotinin, 10 µg/ml leupeptin, and 1 mM PMSF. Cell lysates were subjected to SDS-polyacrylamide gel electrophoresis using a precast ready gel system (BioRad, Veenendaal, The Netherlands) and transferred to polyvinylidenedifluoride (PVDF) paper.
• Fig. 1. Effect of various drugs on GHR species. Cells were treated for 3 h as follows: lane 1, vehicle; lane 2, MG132 (10 µM); lane 3, Tapi-I (10 µM); lane 4, MG132 (10 µM) and Tapi-I (10 µM); lane 5, cycloheximide (0.1 mM); m, mature; p, precursor GHR. […] Quantification of receptors at the cell surface. […] The number GHRs were calculated and expressed as a percentage of untreated cells. • Fig. 3. Effect of metalloprotease inhibitors on the release of GH binding protein.

[3] = Chinese hamster lung cells transfected with rabbit GHR, treated for 3 h, MG132 10 µM, Tapi-I 10 µM, cycloheximide 0.1 mM, compared with vehicle control (Fig. 1)

Row | SMILES | inhibition of shedding of GHBP [1] | amount of precursor GHR [2, 3] | steady state amount of mature GHR [2, 3] | amount of precursor GHR [2] | steady state amount of mature GHR [2]
1 | CNC(=O)[C@H](Cc1c[nH]c2ccccc12)NC(=O)[C@@H](CC(=O)NO)CC(C)C [GM6001] | almost completely inhibited | – | – | – | –
2 | CC(C)C[C@@H](C=O)NC(=O)[C@H](CC(C)C)NC(=O)[C@H](CC(C)C)NC(=O)OCc1ccccc1 [MG132, carbobenzoxy-L-leucyl-L-leucyl-L-leucinal] (Cbz-Leu-Leu-Leu-aldehyde) | – | remained constant | decreased | – | –
3 | CC(C)C[C@H](CC(=O)NO)C(=O)N[C@@H](Cc1ccc2ccccc2c1)C(=O)N[C@@H](C)C(=O)NCCN [Tapi-I] | almost completely inhibited | unchanged | slight increase | – | –
4 | C[C@@H]1C[C@@H]([C@H](O)CC2CC(=O)NC(=O)C2)C(=O)[C@@H](C)C1 [cycloheximide] | – | – | – | virtually disappeared | virtually disappeared
